Experimental data reported in patent US20110319384A1, “Pharmaceutical Compositions” (priority 2005, published 2011).

Columns and labels:
[1] = tested on: patients with major depression with prominent anxiety symptoms; assay: Example 33: double-blind randomized 8-week study, quetiapine augmentation of SSRIs/SNRIs
Procedure: Patients were also evaluated according to the CGI-S scale for severity, the Global Assessment scale (GAS) and for adverse events (AEs). Patients were evaluated at baseline and at Weeks 1, 2, 4, 6, and 8. Response was defined as a ≧50% reduction in HAM-D or HAM-A total scores from baseline to Week 8. Remission was defined as a HAM-D or HAM-A total score of 7 or lower at Week 8.
In order to be included in the study, patients had to have a DSM-IV diagnosis of major depression (HAM-D score ≧18), a CGI-S score ≧4, and a HAM-A score ≧14. […] Patients who had: (1) a current CNS disorder; (2) significant hepatic, renal or gastrointestinal impairment; (3) acute, unstable or significant and untreated medical conditions; (4) current substance abuse or dependence; or (5) were at risk for suicide were excluded. Pregnant or breast-feeding women were excluded also.

[2] = tested on: patients with treatment-resistant depression; assay: Example 32: 8-week double-blind randomized placebo-controlled study, quetiapine added to SSRI/SNRI
Source text: Pregnant or lactating women, or those who were planning on becoming pregnant were not allowed to participate either. Participation in a clinical research study within 90 days of the start of this study also precluded applicants from participating. […] The primary efficacy endpoint for this study was HAM-D score at Week 8. Secondary endpoints included: (1) response (≧50% reduction in HAM-D score) and remission (HAM-D score <7) rates; (2) final Montgomery-Asberg Rating Scale score (MADRS); (3) CGI-S scores; and (4) CGI-I scores. Efficacy was assessed at baseline, then at Weeks 1, 2, 3, 4, 6, and 8. Adverse events (AEs) were also monitored.

For OCCOCCN1CCN(C2=Nc3ccccc3Sc3ccccc32)CC1 [quetiapine, 11-[4-[2-(2-hydroxyethoxy)ethyl]-1-piperazinyl]-dibenzo[b,f][1,4]thiazepine], the “mean HAM-A score at baseline” value ([1]; added to SSRI/SNRI) was “about 23”, the “mean HAM-D score at baseline” value ([1]; added to SSRI/SNRI) was “about 23” and the “mean HAM-A score after treatment” value ([1]; added to SSRI/SNRI, 8 weeks) was “about 10”. The “mean HAM-D score after treatment” value ([1]; added to SSRI/SNRI, 8 weeks) was “about 12”, the “mean improvement from baseline in HAM-A scores” value ([1]; added to SSRI/SNRI, 8 weeks, placebo about 5) was “about 13” and the “mean improvement from baseline in HAM-D scores” value ([1]; added to SSRI/SNRI, 8 weeks, placebo about 5, mean dose 202 mg/day) was “about 11”. The “CGI-S and GAS assessments” value ([1]; in vivo) was “significantly more effective than placebo”, the “serious AEs” value ([1]; in vivo) was “no serious AEs were reported” and the “patients with an increase in bodyweight ≧5 kg” value ([1]; no patients in the placebo group) was 6 patients. The “remission rate as assessed by HAM-A (total score of 7 or lower at Week 8)” value ([1]; placebo 17%) was 41%, the “remission rate as assessed by HAM-D (total score of 7 or lower at Week 8)” value ([1]; placebo 17%) was 31% and the “response rate as assessed by HAM-A (≧50% reduction to Week 8)” value ([1]; placebo 28%) was 62%. For the same compound, the “response rate as assessed by HAM-D (≧50% reduction to Week 8)” value ([1]; placebo 28%) was 48%, the “mean HAM-D score at study end” value ([2]; added to SSRI/SNRI, Week 8, placebo about 15) was “about 8” and the “mean MADRS score at study end” value ([2]; added to SSRI/SNRI, placebo about 24) was “about 15”. The mean weight gain ([2]; in vivo) was “about 6 kg”, the “most common side effects” value ([2]; in vivo) was “fatigue, dry mouth, and sedation/somnolence” and the “patients who withdrew from the study due to serious adverse events” value ([2]; in vivo) was “No patients”. The tolerability ([2]; in vivo) was “generally well-tolerated”, the “final mean CGI-I score” value ([2]; placebo 3.5) was 2.5 and the “final mean CGI-S score” value ([2]; placebo 3.8) was 2.8. The “patients who achieved remission (HAM-D score <7)” value ([2]; placebo 15%) was 43% and the “patients who responded to treatment (≧50% reduction in HAM-D score)” value ([2]; placebo 27%) was 67%.
